# Patent US8815875B2 (Merck Sharp & Dohme Corp., priority 2008, dated 2014)
# Biological target: FABP4 (Homo sapiens, UniProt P15090)
# Experiment: TdF (Temperature Dependence Fluorescence) assay, thermal shift, FABP4
# Type: binding
# Summary of the method: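 Binding measured as ΔTm versus protein alone; binding constants derived by nonlinear fitting with ΔHL set to −7 kcal/mol and ΔCpL to zero.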
# Chain of FABP4 (P15090 whole entry, species assumed): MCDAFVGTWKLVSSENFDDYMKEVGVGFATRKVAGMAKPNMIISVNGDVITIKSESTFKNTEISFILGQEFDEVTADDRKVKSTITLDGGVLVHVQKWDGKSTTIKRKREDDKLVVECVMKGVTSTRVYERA
Structure (SMILES),FABP4 TdF Kd,Kd [nM]
O=c1cc(COc2ccccc2Cl)[nH]c2nc(-c3ccccc3)nn12 [1-118],B (0.5 ≦ B < 0.001 μM),
Cc1ccsc1-c1nc2[nH]c(COc3cccc(Cl)c3C)cc(=O)n2n1 [1-113],,> 500
O=c1cc(COC2CCSCC2)[nH]c2nc(-c3ccccc3)nn12 [1-79],,> 500
N#Cc1c(Cl)cccc1OCc1cc(=O)n2nc(-c3ccccc3)nc2[nH]1 [1-24],B (0.5 ≦ B < 0.001 μM),
O=c1cc(CN2CCc3ccccc32)[nH]c2nc(-c3ccccc3)nn12 [1-43],,> 500
Cc1csc(-c2ccc(OCc3cc(=O)n4nc(-c5ccccc5)nc4[nH]3)cc2)n1 [1-44],,> 500
O=c1cc(CN2CCCC2Cc2cccnc2)[nH]c2nc(-c3ccccc3)nn12 (stereo not drawn) [1-112],,> 500
O=c1cc(COc2ccc(Br)c(Cl)c2)[nH]c2nc(-c3ccccc3)nn12 [1-8],,> 500
CCc1ccc(NCc2cc(=O)n3nc(C)nc3[nH]2)cc1 [5-7],,> 500
Cc1c(OCc2cc(=O)n3nc(-c4ccccc4)nc3[nH]2)cccc1C(F)(F)F [1-85],B (0.5 ≦ B < 0.001 μM),
CCc1cccc(C)c1OCc1cc(=O)n2nc(-c3ccccc3)nc2[nH]1 [1-33],B (0.5 ≦ B < 0.001 μM),
O=c1cc(COc2ccccc2C(F)(F)F)[nH]c2nc(-c3ccccc3)nn12 [1-62],B (0.5 ≦ B < 0.001 μM),
Cc1c(Cl)cccc1OCc1[nH]c2nc(-c3ccccc3)nn2c(=O)c1Br [2-1],B (0.5 ≦ B < 0.001 μM),
Cn1cc2cccc(NCc3cc(=O)n4nc(-c5ccccc5)nc4[nH]3)c2n1 [1-105],,> 500
O=c1cc(CO[C@@H]2C[C@H]3CC[C@@H]2C3)[nH]c2nc(-c3ccccc3)nn12 [1-107],B (0.5 ≦ B < 0.001 μM),
O=c1cc(CN2Cc3ccccc3C2)[nH]c2nc(-c3ccccc3)nn12 [1-14],,> 500
CC1(C)CCCC(C)(C)C1OCc1cc(=O)n2nc(-c3ccccc3)nc2[nH]1 [1-102],,> 500
CCc1cccc(OCc2cc(=O)n3nc(-c4ccccc4)nc3[nH]2)c1 [1-60],B (0.5 ≦ B < 0.001 μM),

Structure (SMILES),FABP4 TdF Kd,Kd [nM]
O=c1cc(CN2CCC(c3cccc(Cl)c3)C2)[nH]c2nc(-c3ccccc3)nn12 (stereo not drawn) [1-91],,> 500
CCOc1ccc(NCc2cc(=O)n3nc(-c4ccccc4)nc3[nH]2)cc1 [6-2],,> 500
O=c1cc(Cn2ncc3ccccc32)[nH]c2nc(-c3ccccc3)nn12 [1-12],,> 500
O=c1cc(COC2CCOCC2)[nH]c2nc(-c3ccccc3)nn12 [1-76],,> 500
CCc1ccc(OCc2cc(=O)n3nc(CO)nc3[nH]2)cc1 [8-8],,> 500
CC(C)c1ccc(NCc2cc(=O)n3nc(-c4ccccc4)nc3[nH]2)cc1 [6-1],,> 500
Cc1c(Cl)cccc1OCc1cc(=O)n2nc(-c3ccccn3)cc2[nH]1 [8-14],,> 500
Cn1cc(Br)c(NCc2cc(=O)n3nc(-c4ccccc4)nc3[nH]2)n1 [1-146],,> 500
CCc1ccc(OCc2cc(=O)n3nc(C(F)(F)F)nc3[nH]2)cc1 [8-2],,> 500
O=c1cc(COc2c(Cl)ccc(Cl)c2Cl)[nH]c2nc(-c3ccccc3)nn12 [1-31],B (0.5 ≦ B < 0.001 μM),
CCc1ccc(NCc2cc(=O)n3nc(C(F)(F)F)nc3[nH]2)cc1 [5-2],,> 500
O=c1cc(COC2CCC2)[nH]c2nc(-c3ccccc3)nn12 [1-20],,> 500
Nc1c(Cl)cccc1OCc1cc(=O)n2nc(-c3ccccc3)nc2[nH]1 [1-136],B (0.5 ≦ B < 0.001 μM),
CCc1ccc(OCc2cc(=O)n3nc(C4CC4)nc3[nH]2)cc1 [8-12],,> 500
O=c1cc(COc2cc(Cl)cc(Cl)c2)[nH]c2nc(-c3ccccc3)nn12 [1-86],B (0.5 ≦ B < 0.001 μM),
O=c1cc(CNC2CCc3c(Cl)cccc32)[nH]c2nc(-c3ccccc3)nn12 (stereo not drawn) [1-52],B (0.5 ≦ B < 0.001 μM),
Cc1cccc(OCc2cc(=O)n3nc(-c4ccccc4)nc3[nH]2)c1C [1-26],,> 500

# Next, values leading:
FABP4 TdF Kd,Kd [nM],Structure (SMILES)
,≤ 1,"O=C(NCC1(CO)CCCC1)C1(OCc2cc(=O)n3nc(-c4ccccc4)nc3[nH]2)CCCCC1 [48-15, N-((1-(hydroxymethyl)cyclopentyl)methyl)-1-((7-oxo-2-phenyl-4,7-dihydro-[1,2,4]triazolo[1,5-a]pyrimidin-5-yl)methoxy)cyclohexanecarboxamide]"
B (0.5 ≦ B < 0.001 μM),,CNc1cccc(N(C)Cc2cc(=O)n3nc(-c4ccccc4)nc3[nH]2)c1C1CC1 [19-2]
,> 500,"COC[C@@H]1CCCN1C(=O)C1(OCc2cc(=O)n3nc(-c4ccccc4)nc3[nH]2)CCCCC1 [48-5, (S)-5-((1-(2-(methoxymethyl)pyrrolidine-1-carbonyl)cyclohexyloxy)methyl)-2-phenyl-[1,2,4]triazolo[1,5-a]pyrimidin-7(4H)-one]"
B (0.5 ≦ B < 0.001 μM),,O=C(NC1CCc2c(Cl)cccc21)C1(OCc2cc(=O)n3nc(-c4ccccc4)nc3[nH]2)CCCCC1 (stereo not drawn) [48-63]
,> 500,CCc1ccc(CCc2cc(=O)n3nc(-c4ccccc4)nc3[nH]2)cc1 [14-3]
B (0.5 ≦ B < 0.001 μM),,"Cn1nccc1NC(=O)c1c(Cl)cccc1OCc1cc(=O)n2nc(-c3ccccc3)nc2[nH]1 [47-2, 2-chloro-N-(1-methyl-1H-pyrazol-5-yl)-6-((7-oxo-2-phenyl-4,7-dihydro-[1,2,4]triazolo[1,5-a]pyrimidin-5-yl)methoxy)benzamide]"
,≤ 1,"O=C(NC1(c2cccc(Cl)c2)CC1)C1(OCc2cc(=O)n3nc(-c4ccccc4)nc3[nH]2)CCCCC1 [48-9, N-(1-(3-chlorophenyl)cyclopropyl)-1-((7-oxo-2-phenyl-4,7-dihydro-[1,2,4]triazolo[1,5-a]pyrimidin-5-yl)methoxy)cyclohexanecarboxamide]"
,≤ 1,"O=C(NCC1(c2ccc(Cl)cc2)CC1)c1c(Cl)cccc1OCc1cc(=O)n2nc(-c3ccccc3)nc2[nH]1 [47-4, 2-chloro-N-((1-(4-chlorophenyl)cyclopropyl)methyl)-6-((7-oxo-2-phenyl-4,7-dihydro-[1,2,4]triazolo[1,5-a]pyrimidin-5-yl)methoxy)benzamide]"
B (0.5 ≦ B < 0.001 μM),,O=C(NCCC1CC1)c1ccccc1OCc1cc(=O)n2nc(-c3ccccc3)nc2[nH]1 [47-61]
B (0.5 ≦ B < 0.001 μM),,O=C(NCC1(O)CCCC1)C1(OCc2cc(=O)n3nc(-c4ccccc4)nc3[nH]2)CCCCC1 [48-60]
B (0.5 ≦ B < 0.001 μM),,CN(CCC1CC1)C(=O)C1(OCc2cc(=O)n3nc(-c4ccccc4)nc3[nH]2)CCCCC1 [48-77]
B (0.5 ≦ B < 0.001 μM),,"O=C(NCC1CCC1)c1c(Cl)cccc1OCc1cc(=O)n2nc(-c3ccccc3)nc2[nH]1 [47-5, 2-chloro-N-(cyclobutylmethyl)-6-((7-oxo-2-phenyl-4,7-dihydro-[1,2,4]triazolo[1,5-a]pyrimidin-5-yl)methoxy)benzamide]"
B (0.5 ≦ B < 0.001 μM),,CN(C(=O)c1ccccc1OCc1[nH]c2nc(-c3ccccc3)nn2c(=O)c1Cl)C1CCCCC1 [24-12]
B (0.5 ≦ B < 0.001 μM),,O=C(CC1CC1)Nc1c(Cl)cccc1OCc1cc(=O)n2nc(-c3ccccc3)nc2[nH]1 [49-6]
B (0.5 ≦ B < 0.001 μM),,Cc1c(Cl)cccc1OCc1[nH]c2nc(-c3ccccc3)nn2c(=O)c1F [36-1]
B (0.5 ≦ B < 0.001 μM),,O=c1c(Cl)c(COc2cccc(Cl)c2C2CCC2)[nH]c2nc(-c3ccccc3)nn12 [26-4]
B (0.5 ≦ B < 0.001 μM),,CC(C)(CNC(=O)C1(OCc2cc(=O)n3nc(-c4ccccc4)nc3[nH]2)CCCCC1)N1CCOCC1 [48-58]
B (0.5 ≦ B < 0.001 μM),,O=C(NCCc1cccc(Cl)c1)C1(OCc2cc(=O)n3nc(-c4ccccc4)nc3[nH]2)CCCCC1 [48-45]
,> 500,Cc1c(Cl)cccc1N(Cc1cc(=O)n2nc(-c3ccccc3)nc2[nH]1)C1CC1 [17-2]

FABP4 TdF Kd,Kd [nM],Structure (SMILES)
,> 500,CN(C)C(=O)C1(OCc2cc(=O)n3nc(-c4ccccc4)nc3[nH]2)CCCCC1 [48-30]
,> 500,CC1(NC(=O)c2ccccc2OCc2[nH]c3nc(-c4ccccc4)nn3c(=O)c2Cl)COC1 [24-11]
,> 500,Cc1c(Cl)cccc1NCc1[nH]c2ncnn2c(=O)c1Cl [13-2]
B (0.5 ≦ B < 0.001 μM),,O=c1cc(COc2cc(Cl)ccc2CC2CC2)[nH]c2nc(-c3ccccc3)nn12 [43-3]
B (0.5 ≦ B < 0.001 μM),,COc1cccc(C2(NC(=O)C3(OCc4cc(=O)n5nc(-c6ccccc6)nc5[nH]4)CCCCC3)CC2)c1 [48-71]
B (0.5 ≦ B < 0.001 μM),,O=C(NCC1(c2ccccc2Cl)CC1)C1(OCc2cc(=O)n3nc(-c4ccccc4)nc3[nH]2)CCCCC1 [48-14]
,> 500,O=C(O)C1(OCc2cc(=O)n3nc(-c4ccccc4)nc3[nH]2)CCCC1 [48-78]
B (0.5 ≦ B < 0.001 μM),,CN(C(=O)C1(OCc2cc(=O)n3nc(-c4ccccc4)nc3[nH]2)CCCCC1)C1CCCCC1 [48-27]
,> 500,O=C(NCC1(CO)CCC1)c1ccccc1OCc1[nH]c2nc(-c3ccccc3)nn2c(=O)c1Cl [24-10]
B (0.5 ≦ B < 0.001 μM),,CN(C(=O)C1(OCc2cc(=O)n3nc(-c4ccccc4)nc3[nH]2)CCCCC1)C1CC1 [48-28]
B (0.5 ≦ B < 0.001 μM),,CN(C(=O)c1ccccc1OCc1cc(=O)n2nc(-c3ccccc3)nc2[nH]1)C1CCCCC1 [47-62]
B (0.5 ≦ B < 0.001 μM),,O=C(NCC1(CO)CC1)c1ccccc1OCc1[nH]c2nc(-c3ccccc3)nn2c(=O)c1Cl [24-16]
B (0.5 ≦ B < 0.001 μM),,Cc1c(Cl)cccc1OC(C)c1cc(=O)n2nc(-c3ccccc3)nc2[nH]1 (stereo not drawn) [37-5]
B (0.5 ≦ B < 0.001 μM),,C#CC1(NC(=O)C2(OCc3cc(=O)n4nc(-c5ccccc5)nc4[nH]3)CCCCC2)CCCCC1 [48-41]
,> 500,CN(C)Cc1c(Cl)cccc1OCc1cc(=O)n2nc(-c3ccccc3)nc2[nH]1 [33-1]
B (0.5 ≦ B < 0.001 μM),,O=C(NC1(CO)CCC1)c1c(Cl)cccc1OCc1cc(=O)n2nc(-c3ccccc3)nc2[nH]1 [47-35]
B (0.5 ≦ B < 0.001 μM),,O=C(NC1CCCCC1)c1ccccc1OCc1cc(=O)n2nc(-c3ccccc3)nc2[nH]1 [47-63]
B (0.5 ≦ B < 0.001 μM),,Cc1ccccc1C(C)Cc1cc(=O)n2nc(-c3ccccc3)nc2[nH]1 (stereo not drawn) [35-5]
